Assay results: PMC3266934, “The Murine Coronavirus Hemagglutinin-esterase Receptor-binding Site: A Major Shift in Ligand Specificity through Modest Changes in Architecture” (PLoS Pathogens, 2012)

Target: T1, MHV-S HE ectodomain (HE / HE^0) (Murine hepatitis virus strain S, UniProt P31614)
T1 construct: HEK293T or HEK293 GnTI(-); codon-optimized synthetic gene; homodimer
Test: GC-MS of enzymatic de-O-acetylation
Assay type: biochemical
Settings: sialate-4-O-acetylesterase site; thrombin-released ectodomain

T1 sequence (P31614 25-403): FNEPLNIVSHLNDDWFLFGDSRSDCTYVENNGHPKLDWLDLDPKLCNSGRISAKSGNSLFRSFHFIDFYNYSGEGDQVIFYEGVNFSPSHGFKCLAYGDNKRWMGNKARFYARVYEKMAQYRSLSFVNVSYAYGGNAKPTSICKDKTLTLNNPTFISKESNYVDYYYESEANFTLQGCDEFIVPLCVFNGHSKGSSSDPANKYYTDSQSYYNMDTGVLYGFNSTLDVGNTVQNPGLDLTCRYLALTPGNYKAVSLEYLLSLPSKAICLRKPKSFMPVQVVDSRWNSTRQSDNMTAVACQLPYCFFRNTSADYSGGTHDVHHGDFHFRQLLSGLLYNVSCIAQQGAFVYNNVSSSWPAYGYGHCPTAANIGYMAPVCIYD

## CO[C@]1(C(=O)O)C[C@H](OC(C)=O)[C@@H](NC(C)=O)[C@H]([C@H](O)[C@H](O)COC(C)=O)O1 [αNeu4,5,9Ac32Me, 5-N-acetyl-4,9-di-O-acetylneuraminic acid α-methylglycoside]
  GC-MS of enzymatic de-O-acetylation: retained proper sialate-4-O-acetylesterase activity when assayed for substrate specificity with a synthetic di-O-acetylated Sia
